Laboratory results: article PMC10012172, “Chimeric Peptidomimetic Antibiotic Efficiently Neutralizes Lipopolysaccharides (LPS) and Bacteria-Induced Activation of RAW Macrophages” (ACS Infectious Diseases, 2023)

Test system: RAW264.7 macrophages stimulated with treated P. aeruginosa
Experiment: Silent killing: stimulation of macrophages with nonviable bacteria (TNF-α ELISA)
Type: cell-based
Details: RAW264.7 2 h
Procedure: Figure 7 (A) Determination of macrophage activation in response to viable and nonviable bacteria. P. aeruginosa was treated with gentamicin, heat treatment, CATH-2 (control), CPA, murepavadin, MHM, PMB, or PMBN (20 μM of each) and subsequently added to RAW264.7 macrophages. Production of TNF-α was measured using ELISA after 2 h of treatment. (B) Viability of P. aeruginosa after treatment was checked by plating on TSA plates. Data is plotted as the mean ± SEM of three independent experiments. Significant differences were determined by ordinary one-way ANOVA (Tukey’s multiple comparison test).
RAW264.7 cells were seeded (7.5 × 10^4 cells/well) as described above. P. aeruginosa (diluted to 1 × 10^6 CFU/mL in DMEM) was treated separately with heat (1 h at 90 °C), 1 mg/mL gentamicin (1 h at 37 °C), 20 μM CPA (1 h at 37 °C), 20 μM PMB (1 h at 37 °C), 20 μM murepavadin (1 h at 37 °C), 20 μM MHM (1 h at 37 °C), 20 μM CATH-2 (1 h at 37 °C), and DMEM only (untreated sample) (1 h at 4 °C). After treatment, the bacteria were added to the RAW264.7 cells for 2 h of incubation at 37 °C. After that, TNF-α production was determined in the supernatant by ELISA.

Compound: CNC(C)C1CCC(N)C(OC2C(N)CC(N)C(OC3OCC(C)(O)C(NC)C3O)C2O)O1 (centres unmarked) [Gentamicin]
- macrophage activation (TNF-α) by gentamicin-killed P. aeruginosa compared to viable untreated bacteria (bacteria treated with 1 mg/mL gentamicin 1 h at 37 °C): almost same level as viable untreated bacteria

Compound: chicken cathelicidin 2 (LVQRGRFGRFLRKIRRFRPKVTITIQGSARFG; Cathelicidin-2; UniProt Q2IAL7 123-154, looked up) [CATH-2, chicken cathelicidin 2, control peptide for which silent killing was originally described]
- macrophage activation (TNF-α) by peptide-treated P. aeruginosa compared to viable untreated bacteria (bacteria 1 × 10^6 CFU/mL treated with 20 μM peptide 1 h at 37 °C, three independent experiments): significantly reduced immune response
